From patent US20050181072A1, “Use of essential oils for combating gi tract infection by helicobacter-like organisms” (priority 2000, published 2005)
Values after ≈ are worked out from the molar mass of the structure shown. Where two headings read alike, the source gives them in different places.

Tested on: H. pylori
Assay: Liquid medium assay, MBC determination (CFU count after subculture)
Format: cell-based
Conditions: Helicobacter pylori
Procedure: The parameters used to define the inhibitory capacity of a given substance are: 1) the minimal inhibitory concentration (MIC) which is the lowest concentration at which bacterial growth is prevented, and 2) the minimal […] concentration (MBC) which is the lowest concentration at which bacteria are killed (no growth in subculture). In the light of this: MIC≦MBC. ?
b) Liquid medium assay (used for MBC determination)
MBC determination in H. pylori was carried out by placing bacteria and different dilutions of EO at pH 7.4 together for 1 h or 24 h, plating (subculture in solid medium) for 3-5 days, and counting colony forming units (CFU). The results were then plotted as H. pylori (log10CFU/ml) vs concentration of EO (g/l). It is clear from the plots (shown in FIGS. 1 and 2) that EOs already display a marked effect on H. pylori viability after 1 h incubation and that the selected EOs are remarkably potent inhibitors of H. pylori in vitro.

[1] = pure compounds, Table 2, pH 7.4, read-out: Liquid medium MBC
[2] = pH 7.4, read-out: Liquid medium MBC

CC1=CCC2CC1C2(C)C (stereo not drawn) [Alpha-pinene]
MBC [1]: 100 µg/mL (≈ 734 µM)

C=C1CCC2CC1C2(C)C (stereo not drawn) [Beta-pinene]
MBC [1]: 100 µg/mL (≈ 734 µM)

Cc1ccc(C(C)C)cc1O [Carvacrol]
MBC [2]: 40 µg/mL (≈ 266 µM)

CC(C)=CCCC(C)=CC=O [Citral]
MBC [1]: 40 µg/mL (≈ 263 µM)

CC(C)=CCCC(C)CC=O (centres unmarked) [Citronellal]
MBC [1]: 100 µg/mL (≈ 648 µM)

C=CCc1ccc(OC)cc1 [Estragole]
MBC [2]: 100 µg/mL (≈ 675 µM)

C=CCc1ccc(O)c(OC)c1 [Eugenol]
MBC [1]: 100 µg/mL (≈ 609 µM)

CC12CCC(CC1)C(C)(C)O2 [Eukalyptol]
MBC [1]: > 100 µg/mL

CC(C)=CCCC(C)=CCCC(C)=CCO [Farnesol]
MBC [1]: 40 µg/mL (≈ 180 µM)

CC(C)=CCC/C(C)=C/CO [Geraniol]
MBC [1]: 100 µg/mL (≈ 648 µM)

CC(=O)OC/C=C(\C)CCC=C(C)C [Geranyl acetate]
MBC [1]: > 100 µg/mL

CC=Cc1ccc(O)c(OC)c1 [Isoeugenol]
MBC [1]: 40 µg/mL (≈ 244 µM)

C=CC(C)(O)CCC=C(C)C (centres unmarked) [Linalool]
MBC [1]: 100 µg/mL (≈ 648 µM)

CC1CCC(C(C)C)C(O)C1 (centres unmarked) [Menthol]
MBC [1]: > 100 µg/mL

CC(C)=CCC/C(C)=C\CO [Nerol]
MBC [1]: 40 µg/mL (≈ 259 µM)

Cc1ccc(C(C)C)c(O)c1 [Thymol]
MBC [1]: 100 µg/mL (≈ 666 µM)

CCC/C=C/C=O [Trans-2-hexenal]
MBC [1]: 40 µg/mL (≈ 408 µM)
